Values of other authors, collected in article PMC6262012, “IMB-T130 targets 3-dehydroquinate synthase and inhibits Mycobacterium tuberculosis” (Scientific Reports, 2018).

Tested on: M. tuberculosis
Conditions: drug-resistant strains, compared with RFP and INH; cited from earlier work

## O=C(Nc1nc(-c2ccccn2)cs1)c1ccc(Cl)s1 [IMB-T130, 5-chloro-N-[4-(pyridin-2-yl)-1,3-thiazol-2-yl] thiophene-2-carboxamide]
  MIC against drug-resistant strains: substantially lower MIC
